pIC50: −log10 of the molar value.
How the values were obtained:
Type in all cases: cell-based
MMP-1 = MMP-1 ELISA on supernatants of chondrocytes stimulated with IL-1β; settings: Homo sapiens, Chondrocyte; chondrocytes pretreated 2 hours, IL-1β 24 hours; protein (ELISA); N/A = did not affect MMP levels; read-out: IC50 constants for inhibition of MMP activity, MMP-1
Method: (§1) The effects of dendrimer compounds comprising n-acyl urea terminal moieties (i.e., dd-NAU) were evaluated for MMP activity in chondrocytes. […] In some instances, these effects were compared to dendrimer compounds comprising glucosamine terminal moieties (i.e., dd-Gln) and/or ethyl dimethylaminopropylurea (EDU). Chondrocytes were grown to confluency in 6-well plates (4 donors). The chondrocytes were pretreated with dendrimers (e.g., dd-NAU or dd-Gln) or EDU for 2 hours and then stimulated with IL-1β for 24 hours. Supernatants were collected and MMP-1, -3, and 13 ELISA assays were performed. The cells were collected for RNA analysis (3 donors).
(§2) Chondrocytes were grown to confluency in 6-well plates (2 donors). […] Supernatants were collected and MMP-1, -3, and 13 ELISA assays were performed. Neutral Red assays and Calcien AM assays were also performed on the chondrocytes to determine cell viability.

MMP-3 = MMP-3 ELISA on supernatants of chondrocytes stimulated with IL-1β; settings: Homo sapiens, Chondrocyte; chondrocytes pretreated 2 hours, IL-1β 24 hours; protein (ELISA); N/A = did not affect MMP levels; read-out: IC50 constants for inhibition of MMP activity, MMP-3
Method: as §1, §2

MMP-13 = MMP-13 ELISA on supernatants of chondrocytes stimulated with IL-1β; settings: Homo sapiens, Chondrocyte; chondrocytes pretreated 2 hours, IL-1β 24 hours; protein (ELISA); N/A = did not affect MMP levels; read-out: IC50 constants for inhibition of MMP activity, MMP-13
Method: as §1, §2

- pIC50 (MMP-1): 2.85
- pIC50 (MMP-3): 3.22
- pIC50 (MMP-13): 2.85
SMILES: N[C@H]1C(O)O[C@H](CO)[C@@H](O)[C@@H]1O (stereo partly drawn) [Glucosamine]
